Assay results reported in patent publication US5336686A, “17 Methylene lactones of steroids” (Roussel-Uclaf, priority 1992, dated 1994).

Assays:
[1] = biological target: T1, Progestogen Receptor of Rabbit's Uterus (Oryctolagus cuniculus, UniProt P06186); test: Progestogen receptor of rabbit's uterus, relative bond affinity (RBA); type: binding; details: vs tritiated Product R; for relative bond affinity (RBA), Progestogen, 2 H: incubation 2 H at 0° C.; for relative bond affinity (RBA), Progestogen, 24 H: incubation 24 H at 0° C.
T1 construct: The uteri were removed, weighed and homogenized at 0° C; from tissue; host or cells: uterus of estradiol-treated impubic rabbits, 105,000 g supernatant (cytosol)
T1 sequence (P06186 1-930): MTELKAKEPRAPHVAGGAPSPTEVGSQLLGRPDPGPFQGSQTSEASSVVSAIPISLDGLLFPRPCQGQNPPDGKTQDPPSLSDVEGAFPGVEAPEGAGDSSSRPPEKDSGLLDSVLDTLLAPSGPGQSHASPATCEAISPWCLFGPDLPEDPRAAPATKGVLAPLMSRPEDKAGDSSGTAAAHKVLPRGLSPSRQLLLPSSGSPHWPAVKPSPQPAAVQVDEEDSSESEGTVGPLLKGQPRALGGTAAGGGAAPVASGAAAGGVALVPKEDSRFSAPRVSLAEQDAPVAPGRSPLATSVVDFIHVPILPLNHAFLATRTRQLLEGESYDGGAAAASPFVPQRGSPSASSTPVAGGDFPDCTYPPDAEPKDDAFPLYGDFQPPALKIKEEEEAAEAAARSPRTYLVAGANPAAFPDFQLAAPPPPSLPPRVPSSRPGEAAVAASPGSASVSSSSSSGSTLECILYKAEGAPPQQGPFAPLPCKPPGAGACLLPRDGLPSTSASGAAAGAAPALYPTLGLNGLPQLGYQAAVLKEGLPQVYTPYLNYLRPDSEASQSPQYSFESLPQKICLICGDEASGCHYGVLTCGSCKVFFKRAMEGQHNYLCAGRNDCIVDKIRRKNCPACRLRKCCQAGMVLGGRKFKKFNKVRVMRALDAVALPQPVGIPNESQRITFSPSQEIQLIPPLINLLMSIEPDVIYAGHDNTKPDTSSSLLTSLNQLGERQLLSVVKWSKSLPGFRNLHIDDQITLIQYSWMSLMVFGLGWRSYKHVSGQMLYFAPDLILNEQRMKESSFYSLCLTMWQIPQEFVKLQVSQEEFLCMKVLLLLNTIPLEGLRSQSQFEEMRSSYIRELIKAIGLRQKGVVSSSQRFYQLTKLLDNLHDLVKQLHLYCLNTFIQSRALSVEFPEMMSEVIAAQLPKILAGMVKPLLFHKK
Description: Impubic rabbits weighing about 1 kg received a cutaneous application of […] of estradiol and 5 days after this treatment, the animals were killed. The uteri were removed, weighed and homogenized at 0° C., using a Potter teflon flask in a buffered TS solution (10 mM Tris, 0.25 M saccharose, HCl pH 7.4) (1 g of tissue per 50 ml of TS). The homogenate was then ultracentrifuged (105,000 g×90 min) at 0° C. The aliquots of the supernatant were incubated at 0° C. for a time t, with a constant concentration (T) of tritiated Product R (17,21-dimethyl-19-nor-Δ^4,9 -pregnadiene-3,20-dione) in the presence of increasing concentrations (0-2,500×10^-9 M) either of cold R, or of cold progesterone, or of cold product to be tested. The concentration of bound tritiated R (B) was then measured in each incubate by the technique of adsorption with carbon dextran.
(§1) The calculation of the relative bond affinity (RBA) was identical for both receptors.
(§2) The following 2 curves were drawn: the percentage of bound tritiated hormone B/T as a function of the logarithm of the concentration of the cold reference hormone and B/T as a function of the logarithm of the concentration of the cold tested product. The straight line of the equation [formula] was determined. B/T max=Percentage of bound tritiated hormone for an incubation of this tritiated hormone at the concentration (T).
(§3) B/T min=Percentage of the bound tritiated hormone for an incubation of this tritiated hormone at the concentration (T) in the presence of a large excess of cold hormone (2,500×10^-9 M).
(§4) The intersections of the straight line I50 and the curves enabled the concentrations of cold reference hormone (CH) and cold tested product (CX) which inhibited the bonding of the tritiated hormone on the receptor by 50% to be evaluated.
(§5) The relative bond affinity (RBA) of the tested product was determined by the equation: [formula]

[2] = biological target: T2, Glucocorticoid Receptor of Rat's Thymus (Rattus norvegicus, UniProt P06536); test: Glucocorticoid receptor of rat's thymus, relative bond affinity (RBA); type: binding; details: vs tritiated dexamethasone; for relative bond affinity (RBA), Glucocorticoid, 4 H: incubation 4 H at 0° C.; for relative bond affinity (RBA), Glucocorticoid, 24 H: incubation 24 H at 0° C.
T2 construct: The thymuses were removed and homogenized at 0° C; from tissue; host or cells: thymus of adrenalectomized male Sprague-Dawley rats, 105,000 g supernatant (cytosol)
T2 sequence (P06536 1-795): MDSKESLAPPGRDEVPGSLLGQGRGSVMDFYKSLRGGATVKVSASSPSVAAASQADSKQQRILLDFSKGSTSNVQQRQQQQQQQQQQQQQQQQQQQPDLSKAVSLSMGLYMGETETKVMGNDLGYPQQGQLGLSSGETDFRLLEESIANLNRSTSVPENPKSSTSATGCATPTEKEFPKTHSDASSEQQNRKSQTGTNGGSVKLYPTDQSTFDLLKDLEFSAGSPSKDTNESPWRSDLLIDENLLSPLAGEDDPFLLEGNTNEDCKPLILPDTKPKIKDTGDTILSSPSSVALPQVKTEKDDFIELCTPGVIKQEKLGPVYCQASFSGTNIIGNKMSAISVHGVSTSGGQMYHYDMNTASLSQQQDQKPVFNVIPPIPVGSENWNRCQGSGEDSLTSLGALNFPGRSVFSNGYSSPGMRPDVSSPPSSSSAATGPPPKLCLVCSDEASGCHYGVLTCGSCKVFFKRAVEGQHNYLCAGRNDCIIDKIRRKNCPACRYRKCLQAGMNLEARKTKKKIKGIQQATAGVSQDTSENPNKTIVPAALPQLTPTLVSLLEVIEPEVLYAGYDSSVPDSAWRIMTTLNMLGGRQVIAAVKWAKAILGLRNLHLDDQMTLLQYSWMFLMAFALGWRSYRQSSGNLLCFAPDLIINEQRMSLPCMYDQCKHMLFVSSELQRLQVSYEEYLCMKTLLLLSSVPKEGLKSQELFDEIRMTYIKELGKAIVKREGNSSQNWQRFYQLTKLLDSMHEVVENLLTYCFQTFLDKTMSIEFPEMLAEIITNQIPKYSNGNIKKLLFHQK
Description: Male Sprague-Dawley EOPS rats weighing 160 to 200 g were suprarenalectomized and 4 to 8 days after this removal, the animals were killed. The thymuses were removed and homogenized at 0° C. in a 10 mM Tris, 0.15M saccharose, 2 mM dithiothreitol, HCl pH 7.4 buffer using a Potter polytetra-fluoroethylene flask (1 g of tissue per 10 ml of TS). The homogenate was ultracentrifuged (105,000 g×90 min) at 0° C. and the aliquots of the supernatant were incubated at 0° C. for a time (t) with a constant concentration (T) of tritiated dexamethasone in the presence of increasing concentrations (0-2,500×10^-9 M)either of cold dexamethasone, or the cold product to be tested. The concentration of the bound tritiated dexamethasone (B) was measured in each incubate by the technique of adsorption with carbon dextran.
as §1, §2, §3, §4, §5

[3] = system: Thymocytes of suprarenalectomized rats; test: Antiglucocorticoid activity: tritiated uridine incorporation in thymocytes with dexamethasone; type: cell-based, rat; details: for inhibition at 1 µM / inhibition at 0.1 µM / inhibition at 0.01 µM: Rattus norvegicus, Thymocyte, 5.10^-8 M dexamethasone, 37° C., 3 hours, read-out: % inhibition of the effect of the Dexamethasone; for inhibition at 1 µM: product at 10^-6 M; for inhibition at 0.1 µM: product at 10^-7 M; for inhibition at 0.01 µM: product at 10^-8 M
Description: The technique used was derived from the method of Dausse et al, Molecular Pharmacology, Vol. 13, p. 948-955 (1977) ("the relationship between glucocorticoid structure and effects upon Thymocytes"), for the thymocytes of mice. Thymocytes of suprarenalectomized rats were incubated at 37° C. for 3 hours in a nutritive medium containing 5.10^-8 M of dexamethasone in the presence or not of a product to be studied at different concentrations. Tritiated uridine was added, and the incubation was continued for one hour. The incubates were cooled, treated with a 5% solution of trichloroacetic acid, filtered on Whatman GF/A paper and washed three times using a solution of 5% trichloroacetic acid. The radioactivity retained by the filter paper was determined.

Row | relative bond affinity (RBA), Progestogen, 2 H [1] | relative bond affinity (RBA), Progestogen, 24 H [1] | relative bond affinity (RBA), Glucocorticoid, 4 H [2] | relative bond affinity (RBA), Glucocorticoid, 24 H [2] | SMILES | inhibition at 1 µM [3] [%] | inhibition at 0.1 µM [3] [%] | inhibition at 0.01 µM [3] [%] | incorporation of tritiated uridine ([3]; effect of dexamethasone itself, in words)
1 | 32 | 21 | 135 | 94 | C=C1C[C@@]2(CC[C@H]3[C@@H]4CCC5=CC(=O)CCC5=C4[C@@H](c4ccc(N(C)C)cc4)C[C@@]32C)OC1=O [Example 1, γ-lactone of 11β-[4-(dimethylamino)phenyl] 21-methylene 19-nor 17α-Δ^4,9-pregnadiene-17β-ol-3-one-21-carboxylic acid] | 116 | 104 | 71 | 
2 | 86 | 36 | 136 | 59 | C=C1C[C@]2(CC[C@H]3[C@@H]4CCC5=CC(=O)CCC5=C4[C@@H](c4ccc(N(C)C)cc4)C[C@@]32C)OC1=O [Example 2, γ-Lactone of 11β-[4-(dimethylamino)phenyl]21methylene-19-nor 17β-Δ^4,9-pregnadiene-17α-ol-3-one-21-carboxylic acid] |  |  |  | 
3 |  |  |  |  | C=C1C[C@@]2(CC[C@H]3[C@@H]4CCC5=CC(=O)CCC5=C4[C@@H](c4ccc(SC)cc4)C[C@@]32C)OC1=O [Example 3, γ-lactone of 11β-[4-(methylthio)phenyl]21-methylene 19-nor-17α-Δ^4,9-pregnadiene-17β-ol-3-one-21-carboxylic acid] | 133 | 69 | 24 | 
4 |  |  |  |  | C[C@@H]1C[C@H]2[C@@H]3CCC4=CC(=O)C=C[C@]4(C)[C@@]3(F)[C@@H](O)C[C@]2(C)[C@@]1(O)C(=O)CO [dexamethasone, reference compound] |  |  |  | decrease
